Measurements: patent US11207331B2, “Agents, compositions and methods for enhancing neurological function” (University of Southern California, priority 2007, dated 2021)

Key:
hippocampal neural cells = test: Mitotic appearance (doublet cell body) of cultured hippocampal neural cells; assay type: cell-based, rat
Protocol: Hippocampal neural cells were obtained from an embryonic day 18 rat hippocampus. The samples contained approximately 12,000 neurons/sample. The sample was 95% neuronal. No selection for neuronal subtypes was conducted. Hippocampal neurons were treated with 3α-hydroxy-5α-pregnan-20-one (THP). 3α-hydroxy-5α-pregnan-20-one (THP) was added to two samples containing hippocampal neural cells at a concentration of either 10 nanomolar (nM) and 100 nanomolar (nM). The cells were incubated for 24 hrs at 37° C. Neurons were grown in a defined medium, Neurobasal+B27 supplement in the absence (control) or presence of THP or other test molecule (experimental). The samples with added THP were compared with a control sample containing only hippocampal neural cells. Changes in the mitotic appearance of the neural cells were observed. A mitotic appearance of a particular neural cell is defined as a doublet form in the cell body of the neural cell. The doublet form is indicative of a neural cell undergoing mitosis.
The experiment described above was repeated only THP was added to three samples containing hippocampal neural cells at a concentration of 100 nanomolar (nM), 250 nM and 500 nM. The samples with added THP were compared with a control sample containing only hippocampal neural cells. […] Data are expressed as percent of mean+SEM,**p<0.01, ***p<. 001.

[1] = tested on: mouse hippocampal neuron cell line (HT-22); test: FACS of MuLV-GFP infected HT-22 cells; assay type: cell-based; conditions: THP 250 nM
Protocol: Having determined that THP increases the expression of the cell proliferating markers, a determination was sought as to whether the increase in cell proliferation markers translated into an increase in neuronal number. […] As shown in FIGS. 6A-6C, THP increases neuron number as assessed in MuLV-GFP infected mouse neurons. The effect of THP on HT-22 cells proliferation was detected on MuLV infected cells.
FIG. 6C summarizes the FACS results. V=vehicle; THP (250 nM).

[2] = tested on: human neural progenitor cells (hNPC); test: Proliferation and phenotype of human neural progenitor cells (hNPC); assay type: cell-based
Protocol: To determine the impact of THP on hNPC cell proliferation, a dose response (pM-nM) experiment was performed. Results of these analyses indicate:
To determine the impact of THP on the stability of hNPC phenotype, hNPCs were double labeled with BrdU, Tuj1 and MAP2, or GFAP.
To determine whether the same mechanisms of THP-induced proliferation in rodent derived NPCs could be generalized to humans, we determined the requirement of the GABAAR by antagonizing the GABAAR with bicuculline followed by assessment of THP-induced hNPC cell proliferation.

PCNA and CDK1/cdc2 = PCNA and CDK1/cdc2 mRNA and protein in hippocampus (RT-PCR, Western blot); assay type: in vivo, mouse
Protocol: Protein was extracted from mouse hippocampus and separated by SDS gel as described in the literature. After transfer, PVDF membrane was plotted with monoclonal antibody for proliferating cell nuclear antigen (PCNA, 1:500, Zymed Laboratories Inc, San Francisco, Calif.) and then incubated with a horseradish peroxidase conjugated secondary antibody which is complementary to the primary antibody. Results were visualized by the ECL Plus Western Blotting Detection System (GE Healthcare, Amersham, Buckinghamshire, UK) followed by TMB development. Optical density was and analyzed by BioRad Quantity One software. The percent protein expression vs. control was normalized by loading control β-actin.
Brain samples derived from the same brains that underwent unbiased stereological analysis and GC/MC for THP detection were also analyzed by real-time RT-PCR and Western blot for expression of PCNA and CDK1 mRNA and protein.
To confirm the stereological analyses results, Western blot analyses of cell proliferation marker PCNA were carried out using samples derived from the same brains which underwent unbiased stereological analysis. PCNA, or Proliferating Cell Nuclear Antigen, is a protein that acts as a processivity factor for DNA polymerase delta subunit in eukaryotic cells and was induced in vitro by THP in cultured rat hippocampal progenitor cells.
Western blot analysis was performed to determine proliferating cell nuclear antigen (PCNA) expression levels in the hippocampus from the same animals that underwent behavior experiments.

[3] = tested on: reactive microglial cells; test: Microglial reaction (OX42 Western blot, Iba1 staining); assay type: in vivo, mouse
Protocol: Further studies were conducted using a dosing regime of once a week for six months administered subcutaneously. Three and six months old 3×Tg-AD and age-matched non-Tg mice were chosen for the experiments, since AD pathology (Aβ) starts development at 3-month and abundant accumulation at 6-months. Allopregnanolone was subcutaneously (s.c.) administrated with 10 mg/kg once per week for 6 months. For neurogenesis and neurosurvival study, BrdU, IdU and CIdU were intraperitoneal (i.p.) injected at the first 5 days, mid 5 days and 5 days before sacrifice during 6-month treatment. After 6 months of allopregnanolone treatment, mice, at 9- and 12-month old, were sacrificed.
Western blot analysis was conducted with rabbit polyclonal anti-CD11b/c (OX42) which recognizes reactive microglial cells.

[4] = tested on: three month old male 3×TgAD mouse hippocampus; test: Flow cytometry of BrdU labeled cells 24 hours after subcutaneous or transdermal THP; assay type: in vivo
Protocol: Flow cytometry assay detected total BrdU labeled cells 24 hours following THP administration via (A) subcutaneous and (B) transdermal routes. […] BrdU (100 mg/kg) was administered by intraperitoneal injection one hour after THP administration. Transdermal gel THP dose-response for 5, 10, and 50 mg/kg (FIG. 21B) was compared to 0 mg/kg control vehicle (negative control) and subcutaneous injection of 10 mg/kg (positive control) (FIG. 21A). […] Immunoblots of proliferating cell nuclear antigen (PCNA), an S-phase marker and cyclin dependent kinase 1 (CDK1/cdc2), an M-phase marker, are shown in FIGS. 21C and 21D, respectively. Hippocampus protein expression of PCNA and CDK1/cdc2 was normalized to β-tubulin loading control and compared relative to the vehicle control by immunoblot. […] The data were analyzed by one way ANOVA followed by a t test (two samples assuming equal variance) vs. vehicle. Data are presented as the mean±SEM, n=5, *=P<0.05, and **=P<0.01.

With `CC(=O)[C@H]1CC[C@H]2[C@@H]3CC[C@H]4C[C@H](O)CC[C@]4(C)[C@H]3CC[C@]12C` [THP, 3α-hydroxy-5α-pregnan-20-one] the “fold increase in the mitotic phenotype of the neural cells vs control” value (hippocampal neural cells; 10 nM or 100 nM THP, 24 hrs) was about 2 fold, the “concentration with greatest induction of the mitotic phenotype” value (hippocampal neural cells; 100, 250, 500 nM tested) was 500 nm and the “fold increase in the mitotic phenotype of the neural cells vs control” value (hippocampal neural cells; 100, 250 and 500 nM THP) was 2-3 fold. For the same compound, the “increase in dividing cell number” value [1] was 22%, the “efficacy as neurogenic factor compared with bFGF+heparin” value [2] was “exceeded that of bFGF+heparin” and the “proliferative efficacy compared with positive control bFGF” value ([2]; 250 nM THP) was “as efficacious a proliferative factor as the positive control, bFGF”. The “concentration at which proliferation was first evident” value ([2]; dose response) was 1 nM, the “concentration at which proliferative efficacy diminished” value ([2]; dose response) was 1000 nM and the “concentration of maximal proliferation” value ([2]; dose response, sustained at 250 and 500 nM) was 100 nM. For the same compound, the “increase in human neural progenitor cell proliferation” value ([2]; doses within an achievable therapeutic range) was 50%, the “number of BrdU positive hNPCs vs vehicle” value ([2]; double labeling) was “significantly increased” and the “proportion of Tuj1, MAP2 or GFAP cells vs vehicle” value ([2]; double labeling) was “not changing”. For the same compound, the “time at which hNPC proliferation reached maximum” value ([2]; time course) was 6 h, the “time at which hNPC proliferation was evident” value ([2]; time course) was 3 h and the “PCNA and CDK1 protein expression in hippocampi” value (PCNA and CDK1/cdc2; 10 mg/kg, Western blot, 3 months) was “greater PCNA and CDK1 protein expression in the hippocampi of 3×TgAD relative to the non-Tg mice”. For the same compound, the “PCNA expression vs vehicle 21 day after injection” value (PCNA and CDK1/cdc2; 3×TgAD mice, 6, 9 or 12-month-old) was “no significant difference”, the “PCNA mRNA in hippocampus” value (PCNA and CDK1/cdc2; 3×TgAD mice, real-time RT-PCR, 1-20 mg/kg) was “dose-dependent increase in PCNA mRNA” and the “PCNA immunoblot vs vehicle control” value (PCNA and CDK1/cdc2; 3×TgAD mice, three and six month, 24 hours after 10 mg/kg) was “increased”. The “PCNA expression vs vehicle” value (PCNA and CDK1/cdc2; non-Tg and 3×TgAD mice, 6- and 9-months, 24 hr) was “did not significantly affect PCNA expression”, the “anti-CD11b/c (OX42) band intensities” value ([3]; 9-month and 12-month 3×Tg) was “no significant differences” and the anti-Iba1 immunofluorescent staining ([3]; hippocampal CA1) was “lower levels of immunoactivity in THP-treated hippocampal CA1”. For the same compound, the “BrdU cell numbers vs vehicle” value ([4]; 10 mg/kg dose) was “significantly increases BrdU cell numbers” and the “optimal dose to significantly increase BrdU cell numbers” value ([4]; subcutaneous and transdermal routes) was 10 mg/kg.
